Assay results published in ChEMBL document CHEMBL3044730, “Synthesis, antimycobacterial, antiviral, antimicrobial activities, and QSAR studies of nicotinic acid benzylidene hydrazide derivatives” (Med Chem Res, 2012).
≈ marks a conversion by molar mass, not a printed value.

Assays:
[1] = tested on: Vaccinia virus; experiment: Antiviral activity against Vaccinia virus infected human HEL cells assessed as inhibition of virus-induced cytopathicity by microscopy; format: functional, organism-based; settings: Orthopoxvirus vaccinia
[2] = tested on: Respiratory syncytial virus; experiment: Antiviral activity against Respiratory syncytial virus infected human HeLa cells assessed as inhibition of virus-induced cytopathicity by microscopy; format: functional, organism-based
[3] = tested on: Candida albicans; experiment: Antimicrobial activity against Candida albicans after 7 days by serial dilution method; format: functional; design: unit not given here
[4] = tested on: Mammalian orthoreovirus 1; experiment: Antiviral activity against Mammalian orthoreovirus 1 infected Vero cells assessed as inhibition of virus-induced cytopathicity by microscopy; format: functional, organism-based; settings: Mammalian orthoreovirus 1, Vero
[5] = tested on: Human herpesvirus 3 strain Oka vaccine; experiment: Antiviral activity against Human herpesvirus 3 strain Oka vaccine OKA 07-1 (Varicella zoster virus) infected in human HEL cells assessed as inhibition of virus-induced cytopathicity; format: functional, organism-based; settings: Human alphaherpesvirus 3, OKA 07-1, HEL
[6] = tested on: Human immunodeficiency virus 1; experiment: Antiviral activity against Human immunodeficiency virus 1 IIIB infected MT4 cells assessed as inhibition of virus-induced cytopathic effect after 4 days by MTT assay; format: functional, organism-based; settings: MT4, 96 h
[7] = tested on: Bacillus subtilis; experiment: Antimicrobial activity against Bacillus subtilis after 24 hr by serial dilution method; format: functional; design: unit not given here
[8] = tested on: Coxsackievirus B4; experiment: Antiviral activity against Human coxsackievirus B4 infected human HeLa cells assessed as inhibition of virus-induced cytopathicity by microscopy; format: functional, organism-based; settings: Enterovirus B
[9] = tested on: Escherichia coli; experiment: Antimicrobial activity against Escherichia coli after 24 hr by serial dilution method; format: functional; design: unit not given here
[10] = tested on: Human alphaherpesvirus 1; experiment: Antiviral activity against TK(-) aciclovir-resistant Human herpesvirus 1 strain KOS infected in human HEL cells assessed as inhibition of virus-induced cytopathicity; format: functional, organism-based; settings: Human alphaherpesvirus 1, KOS
[11] = tested on: Human respirovirus 3; experiment: Antiviral activity against Human parainfluenza virus 3 infected Vero cells assessed as inhibition of virus-induced cytopathicity by microscopy; format: functional, organism-based; settings: Human respirovirus 3, Vero
[12] = Cytotoxicity against Homo sapiens (human) HeLa cells assessed as alteration in cell morphology by microscopy; format: cell-based
[13] = Cytotoxicity against Homo sapiens (human) MT4 cells after 4 days by MTT assay; format: cell-based
[14] = tested on: Human immunodeficiency virus 2; experiment: Antiviral activity against Human immunodeficiency virus type 2 (ISOLATE ROD) infected MT4 cells assessed as inhibition of virus-induced cytopathic effect after 4 days by MTT assay; format: functional, organism-based; settings: Human immunodeficiency virus 2, ISOLATE ROD, MT4, 96 h
[15] = tested on: Candida albicans; experiment: Antimicrobial activity against Candida albicans after 2 days by serial dilution method; format: functional; design: unit not given here
[16] = tested on: Sindbis virus; experiment: Antiviral activity against Sindbis virus infected Vero cells assessed as inhibition of virus-induced cytopathicity; format: functional, organism-based
[17] = tested on: Punta Toro virus; experiment: Antiviral activity against Punta Toro virus infected Vero cells assessed as inhibition of virus-induced cytopathicity; format: functional, organism-based
[18] = tested on: Human alphaherpesvirus 2; experiment: Antiviral activity against Human herpesvirus 2 strain G infected human HEL cells assessed as inhibition of virus-induced cytopathicity by microscopy; format: functional, organism-based; settings: Human alphaherpesvirus 2, strain G
[19] = tested on: Vesicular stomatitis virus; experiment: Antiviral activity against Vesicular stomatitis virus infected human HeLa cells assessed as inhibition of virus-induced cytopathicity by microscopy; format: functional, organism-based
[20] = tested on: Mycobacterium tuberculosis; experiment: Antimicrobial activity against Mycobacterium tuberculosis by agar dilution method; format: functional
[21] = tested on: Coxsackievirus B4; experiment: Antiviral activity against Human coxsackievirus B4 infected Vero cells assessed as inhibition of virus-induced cytopathicity; format: functional, organism-based; settings: Enterovirus B
[22] = tested on: Human alphaherpesvirus 1; experiment: Antiviral activity against Human herpesvirus 1 strain KOS infected in human HEL cells assessed as inhibition of virus-induced cytopathicity by microscopy by microscopy; format: functional, organism-based; settings: Human alphaherpesvirus 1, KOS
[23] = Cytotoxicity against Homo sapiens (human) HEL cells assessed as alteration in cell morphology by microscopy; format: cell-based
[24] = Cytotoxicity against Chlorocebus aethiops (African green monkey) Vero cells assessed as alteration in cell morphology by microscopy; format: cell-based; settings: chlorocebus sabaeus
[25] = tested on: Staphylococcus aureus; experiment: Antimicrobial activity against Staphylococcus aureus after 24 hr by serial dilution method; format: functional; design: unit not given here
[26] = tested on: Human herpesvirus 5 strain AD169; experiment: Antiviral activity against Human herpesvirus 5 strain AD169 Davis infected human HEL cells assessed as inhibition of virus-induced cytopathicity by microscopy; format: functional, organism-based; settings: Human betaherpesvirus 5, Davis

Row | Structure (SMILES) | EC50 [1] [µg/mL] | EC50 [2] [µg/mL] | -logMIC [3] | EC50 [4] [µg/mL] | EC50 [5] [µg/mL] | EC50 [6] [µg/mL] | -logMIC [7] | EC50 [8] [µg/mL] | -logMIC [9] | EC50 [10] [µg/mL] | EC50 [11] [µg/mL] | MCC [12] [µg/mL] | CC50 at 96 h [13] [µg/mL] | EC50 [14] [µg/mL] | -logMIC [15] | EC50 [16] [µg/mL] | EC50 [17] [µg/mL] | EC50 [18] [µg/mL] | EC50 [19] [µg/mL] | MIC [20] [µg/mL] | also measured
1 | O=C(N/N=C/c1ccccc1O)c1cccnc1 [N'-(2-HYDROXYBENZYLIDENE)NICOTINOHYDRAZIDE] | > 4 | > 0.8 | 1.29 | > 0.8 | > 2.2 | > 0.61 | 1.59 | > 0.8 | 1.29 | > 4 | > 0.8 | 4 | 0.61 (≈ 2.53 µM) | > 0.61 | 1.28 | > 0.8 | > 0.8 | > 4 | > 0.8 | > 25 | EC50 [21]: > 0.8 µg/mL; EC50 [22]: > 4 µg/mL; CC50 [23]: 0.42 µg/mL (≈ 1.74 µM); MCC [23]: ≥ 4 µg/mL; MCC [24]: 4 µg/mL; -logMIC [25]: 1.29; EC50 [26]: > 0.8 µg/mL
2 | O=C(N/N=C/c1ccccc1)c1cccnc1 [NICOTINIC ACID BENZYLIDENE-HYDRAZIDE] | > 100 | > 20 | 1.86 | > 100 | > 100 | > 125 | 0.95 | > 20 | 1.26 | > 100 | > 100 | 100 | > 125 | > 125 | 1.25 | > 100 | > 100 | > 100 | > 20 | > 25 | EC50 [21]: > 100 µg/mL; EC50 [22]: > 100 µg/mL; CC50 [23]: > 100 µg/mL; MCC [23]: > 100 µg/mL; MCC [24]: > 100 µg/mL; -logMIC [25]: 0.35; EC50 [26]: > 100 µg/mL
